Assay results: BindingDB's records for patent US20240317745 (Humanwell Pharmaceutical US, 2024)

target: Sigma non-opioid intracellular receptor 1 (Cavia porcellus, UniProt Q60492); assay: Binding Affinity Assay
Description: An appropriate amount of homogenization buffer was added to the prepared membrane, and was dispersed into a suspension using a homogenizer, protein concentration was measured to be 4 mg/ml. 100 micrograms of protein were added to each well of a 96-well plate, with a volume of 90 μl. […] [3H]-(+)-pentazocine (Perkin-Elmer, Cat #NET1056250UC) was added to each well (final concentration of 10 nM). The 96-well plate was incubated in a constant temperature water bath (25° C., 180 minutes). […] After washing, the samples were dried in a 37° C. oven.

Chain of Sigma non-opioid intracellular receptor 1 (Q60492 whole entry): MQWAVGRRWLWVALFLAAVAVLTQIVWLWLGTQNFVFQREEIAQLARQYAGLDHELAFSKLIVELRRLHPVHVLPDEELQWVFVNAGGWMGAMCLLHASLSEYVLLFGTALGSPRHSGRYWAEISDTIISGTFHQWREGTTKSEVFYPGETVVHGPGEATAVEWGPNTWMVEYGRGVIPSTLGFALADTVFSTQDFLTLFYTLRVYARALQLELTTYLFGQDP

Structure (SMILES) | Ki
Fc1ccc(-c2cc(COCCN3CCOCC3)on2)cc1F [US20240317745, Compound 1] | 80.3 nM
OC1CCN(Cc2cc(-c3ccc(F)c(F)c3)no2)CC1 [US20240317745, Compound 37] | 308 nM
OC1CCN(CCOCc2cc(-c3ccc(Cl)c(Cl)c3)no2)CC1 [US20240317745, Compound 65] | 39.6 nM
Clc1ccc(-c2noc(COCCN3CCOCC3)c2Br)cc1Cl [US20240317745, Compound 74] | 84.4 nM
